Data as given in PMC8343220, “The selectivity of α‐adrenoceptor agonists for the human α1A, α1B, and α1D‐adrenoceptors” (Pharmacology Research & Perspectives, 2021).
Read-outs that look alike come from different tables or passages of the source.

Columns and labels:
[1] = system: parental CHO cell line without any transfected receptors; experiment: ERK1/2‐phosphorylation, parent CHO cells without transfected receptors; type: cell-based, Chinese hamster; settings: for ERK1/2-phosphorylation % PDBu / ERK1/2-phosphorylation Log EC50: CHO cells without transfected receptors, mean ± s.e.m.; for ERK1/2-phosphorylation % PDBu: maximal response as % of PDBu (10μM) response
[2] = molecular target: T1, human α1B‐adrenoceptor (Homo sapiens, UniProt P35368); experiment: ^3H‐prazosin whole‐cell radioligand binding, CHO‐α1B cells
T1 construct: expressed in transfected cells; host or cells: CHO-K1
T1 sequence (P35368 1-520): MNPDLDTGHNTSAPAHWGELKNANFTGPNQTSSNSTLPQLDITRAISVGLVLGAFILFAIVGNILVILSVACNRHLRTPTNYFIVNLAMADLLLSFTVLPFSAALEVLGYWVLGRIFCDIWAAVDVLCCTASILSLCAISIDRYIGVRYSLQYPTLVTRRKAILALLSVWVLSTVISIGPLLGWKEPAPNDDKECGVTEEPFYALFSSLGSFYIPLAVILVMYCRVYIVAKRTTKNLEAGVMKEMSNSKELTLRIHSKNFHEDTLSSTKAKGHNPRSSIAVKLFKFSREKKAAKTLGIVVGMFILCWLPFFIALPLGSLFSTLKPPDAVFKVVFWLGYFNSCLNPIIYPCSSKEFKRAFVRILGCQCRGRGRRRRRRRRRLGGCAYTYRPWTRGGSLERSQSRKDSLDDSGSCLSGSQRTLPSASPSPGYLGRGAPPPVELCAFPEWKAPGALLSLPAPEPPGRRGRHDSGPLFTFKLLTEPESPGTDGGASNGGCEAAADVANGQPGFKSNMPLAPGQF

[3] = molecular target: T1, human α1B‐adrenoceptor; experiment: Intracellular free calcium mobilization, CHO‐α1B cells; type: cell-based
[4] = molecular target: T1, human α1B‐adrenoceptor; experiment: ERK1/2‐phosphorylation (Surefire Alphascreen), CHO‐α1B cells; type: cell-based
[5] = molecular target: T2, human α1A‐adrenoceptor (Homo sapiens, UniProt P35348); experiment: ^3H‐prazosin whole‐cell radioligand binding, CHO‐α1A cells; settings: for Affinity selectivity ratio α1A vs α1B: higher affinity for α1A than α1B
T2 construct: expressed in transfected cells; host or cells: CHO-K1
T2 sequence (P35348 1-466): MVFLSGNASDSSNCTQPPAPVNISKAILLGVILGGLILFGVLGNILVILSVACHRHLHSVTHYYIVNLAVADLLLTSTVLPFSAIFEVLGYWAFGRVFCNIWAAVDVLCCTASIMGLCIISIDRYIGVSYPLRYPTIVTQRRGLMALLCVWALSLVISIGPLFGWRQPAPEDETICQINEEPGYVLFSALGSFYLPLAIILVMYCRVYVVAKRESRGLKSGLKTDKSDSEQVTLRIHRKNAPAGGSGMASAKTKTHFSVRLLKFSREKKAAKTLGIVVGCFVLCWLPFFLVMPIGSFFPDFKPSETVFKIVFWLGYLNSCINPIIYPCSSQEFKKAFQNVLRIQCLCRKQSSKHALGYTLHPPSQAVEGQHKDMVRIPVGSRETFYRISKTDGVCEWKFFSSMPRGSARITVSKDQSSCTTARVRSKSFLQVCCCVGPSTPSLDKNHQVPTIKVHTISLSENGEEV

[6] = molecular target: T3, human α1D‐adrenoceptor (full length) (Homo sapiens, UniProt P25100); experiment: ^3H‐prazosin whole‐cell radioligand binding, CHO‐α1D cells; settings: for 3H‐prazosin binding Log KD: whole‐cell binding (from Table 1), log values given negative
T3 construct: human α1D‐adrenoceptor (full length) were used; expressed in transfected cells; host or cells: CHO-K1
T3 sequence (P25100 1-572): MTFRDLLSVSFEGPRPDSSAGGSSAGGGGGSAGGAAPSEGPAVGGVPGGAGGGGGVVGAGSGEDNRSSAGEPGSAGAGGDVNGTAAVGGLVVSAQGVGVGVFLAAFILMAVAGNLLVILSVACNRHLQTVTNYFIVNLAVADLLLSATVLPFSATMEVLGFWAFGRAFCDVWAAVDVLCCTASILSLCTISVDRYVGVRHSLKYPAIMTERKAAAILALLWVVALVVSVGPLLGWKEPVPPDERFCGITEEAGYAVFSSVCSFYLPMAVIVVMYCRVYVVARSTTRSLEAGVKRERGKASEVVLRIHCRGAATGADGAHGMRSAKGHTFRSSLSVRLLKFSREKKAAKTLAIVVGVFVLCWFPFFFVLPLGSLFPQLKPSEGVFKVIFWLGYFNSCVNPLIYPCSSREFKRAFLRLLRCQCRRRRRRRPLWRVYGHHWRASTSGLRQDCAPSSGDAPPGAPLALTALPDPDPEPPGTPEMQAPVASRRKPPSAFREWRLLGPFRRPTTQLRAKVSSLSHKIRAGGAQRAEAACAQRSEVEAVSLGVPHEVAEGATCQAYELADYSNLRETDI

[7] = molecular target: T2, human α1A‐adrenoceptor; experiment: Intracellular free calcium mobilization, CHO‐α1A cells; type: cell-based; settings: CHO‐α1A cells, no EC50 obtained
[8] = molecular target: T3, human α1D‐adrenoceptor (full length); experiment: Intracellular free calcium mobilization, CHO‐α1D cells; type: cell-based; settings: CHO‐α1D cells; for Intracellular calcium release Log EC50: log values given negative; for Intracellular calcium release % ionomycin: maximal response as % of 10 µM ionomycin
[9] = molecular target: T3, human α1D‐adrenoceptor (full length); experiment: ERK1/2‐phosphorylation (Surefire Alphascreen), CHO‐α1D cells; type: cell-based; settings: CHO‐α1D cells; for ERK1/2‐phosphorylation Log EC50: log values given negative; for ERK1/2‐phosphorylation % PDBu: maximal response as % of PDBu

Row | SMILES | Intracellular calcium release % Ionomycin at 100 µM [3] [%] | ERK1/2‐phosphorylation % PDBu [4] | ERK1/2‐phosphorylation Log EC50 [4] | ERK1/2-phosphorylation % PDBu [1] | ERK1/2-phosphorylation Log EC50 [1] | Affinity selectivity ratio α1A vs α1B [5] [fold] | 3H‐prazosin binding Log KD ([6]; CHO‐α1D cells) | Intracellular calcium release Log EC50 [8] | Intracellular calcium release % ionomycin [8] | ERK1/2‐phosphorylation Log EC50 [9] | ERK1/2‐phosphorylation % PDBu [9] | other results
1 | CCCC(=O)O[C@@H]1[C@@H](C)[C@@]2(O)[C@@H](C=C(CO)C[C@]3(O)C(=O)C(C)=C[C@@H]23)[C@@H]2C(C)(C)[C@]12OC(=O)CCC [PDBu, Phorbol 12,13‐dibutyrate] | – | – | – | – | – | – | – | – | – | – | – | ERK1/2‐phosphorylation response fold over basal [1]: 7.5 ± 0.9 fold over basal
2 | c1ccc2c(c1)CCCC2C1=NCCN1 (centres unmarked) [Tetrohydrozoline] | 2.9 ± 1.4 | No response | No response | – | – | – | – | – | – | – | – | Log KD, ^3H‐prazosin binding [2]: −5.22
3 | O=C1Cc2cc(CCN3CCN(c4nsc5ccccc45)CC3)c(Cl)cc2N1 [ziprasidone] | – | – | – | No response | No response | – | – | – | – | – | – | –
4 | CN[C@@H](C)[C@H](O)c1ccccc1 [Epdedrine] | 18.5 ± 2.9 | 19.1 ± 4.0% | −4.67 ± 0.17 | – | – | – | – | – | – | – | – | –
5 | C1=C(c2cnc[nH]2)c2ccsc2CC1 [RWJ52353] | – | – | – | No response | No response | >190 | −4.30 | No response | No response | No response | No response | Log KD α1A, ^3H‐prazosin whole cell binding ([5]; CHO‐α1A cells, given as log KD (negative), mean ± SEM): −5.28 ± 0.08; Affinity selectivity ratio α1A vs α1D ([5]; higher affinity for α1A than α1D): 9.6 fold; Log IC50 α1B, ^3H‐prazosin whole cell binding ([2]; CHO‐α1B cells, printed as IC50> log value): IC50 >−3; Log KD α1D, ^3H‐prazosin whole cell binding ([6]; CHO‐α1D cells, given as log KD (negative), mean ± SEM, 'early plateau' = specific binding not fully inhibited): −4.30 ± 0.12; Affinity selectivity ratio α1B vs α1D ([6]; higher affinity for α1D than α1B): >20 fold; Intracellular calcium release % ionomycin at 10 µM ([7]; response at 10 μM ligand): 39.4 ± 2.4%; Intracellular calcium release % ionomycin at 10 µM ([3]; CHO‐α1B cells, response at 10 µM ligand (no EC50 given), % of ionomycin response): 8.1 ± 3.1%
6 | CCN1CCc2nc(N)oc2CC1 [BHT933] | – | – | – | – | – | >4.0 | −3.70 | No response | No response | No response | No response | Log KD α1A (apparent), ^3H‐prazosin whole cell binding ([5]; CHO‐α1A cells, apparent KD: maximum concentration did not inhibit all specific binding, IC50 extrapolated): −3.60 ± 0.06^apparent; Log KD, ^3H‐prazosin binding ([2]; CHO‐α1B cells, whole‐cell binding (from Table 1), given as log KD (negative numbers)): No binding; Log KD α1B, ^3H‐prazosin whole cell binding ([2]; CHO‐α1B cells, given as log KD (negative), mean ± SEM): No binding; Log KD α1D (apparent), ^3H‐prazosin whole cell binding ([6]; CHO‐α1D cells, apparent KD: maximum concentration did not inhibit all specific binding, IC50 extrapolated): −3.70 ± 0.18^apparent; Affinity selectivity ratio α1A vs α1D ([6]; higher affinity for α1D than α1A): 1.3 fold; Intracellular calcium release % Ionomycin at 100 µM ([7]; response at 100 μM ligand): 25.5 ± 3.7%; Intracellular calcium release % Ionomycin at 100 µM ([3]; CHO‐α1B cells, response at 100 µM ligand (no EC50 given), % of ionomycin response): 16.6 ± 2.1%
